Source: patent US10005884B2, “Methods for purifying 2-aryl-3,3-bis(hydroxyaryl)phthalimidines” (SABIC GLOBAL TECHNOLOGIES B.V., priority 2014, dated 2018)

Test: Solubility of PPPBP in methanol (amount of methanol required to bring PPPBP into solution)
Format: physicochemical
From the text: Studies were undertaken to determine the amount of methanol required to bring PPPBP into solution at room temperature and at elevated temperature.

With `O=C1c2ccccc2C(c2ccc(O)cc2)(c2ccc(O)cc2)N1c1ccccc1` [Pure PPPBP, 2-phenyl-3,3-bis(4-hydroxyphenyl)phthalimidine] the Volumes of methanol (at reflux temp) was 17 volumes and the Volumes of methanol (at room temp) was 20 volumes.
